In the supplement of paper PMC10331698:
± gives the standard deviation of the averaged measurements.

How the values were obtained:
Experiment in all cases: level (log10 ratio to DMSO vehicle control); higher = higher biomarker level / cell amount than vehicle control
Conditions in all cases: in DMSO
1-(Perfluorohexyl)octane = compound: CCCCCCCCC(F)(F)C(F)(F)C(F)(F)C(F)(F)C(F)(F)C(F)(F)F [1-(Perfluorohexyl)octane]
Procedure: (§1)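 BioMAP Diversity Plus panel of 12 human primary cell co-culture systems (3C, 4H, LPS, SAg, BT, BF4T, BE3C, CASM3C, HDF3CGF, KF3CT, MyoF, Mphg). Compounds were added 1 h before stimulation and left for 24 h (MyoF 48 h; BT 72 h for soluble read-outs or 6 d for IgG). Biomarkers were read by ELISA, cytotoxicity by SRB, PBMC viability and proliferation by Alamar Blue. Each well value was divided by the mean of 8 DMSO control wells on the same plate and log10 transformed; duplicate blinded samples were tested at 4 concentrations.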

[1] = compound: O=C(O)CCC(F)(F)C(F)(F)C(F)(F)F [3:3 Fluorotelomer carboxylic acid]
Procedure: as §1

[2] = compound: O=C(O)C(F)(F)C(F)(F)C(F)(F)C(F)(F)C(F)(F)C(F)(F)C(F)(F)C(F)(F)C(F)(F)C(F)(F)C(F)(F)C(F)(F)F [Perfluorotridecanoic acid]
Procedure: as §1

[3] = compound: O=S(=O)(O)C(F)(F)C(F)(F)C(F)(F)C(F)(F)C(F)(F)C(F)(F)C(F)(F)C(F)(F)F [Potassium perfluorooctanesulfonate]
Procedure: as §1

[4] = compound: OCC(F)(F)C(F)(F)C(F)(F)C(F)(F)C(F)(F)C(F)F [1H,1H,7H-Dodecafluoro-1-heptanol]
Procedure: as §1

Perfluorooctanamidine = compound: N=C(N)C(F)(F)C(F)(F)C(F)(F)C(F)(F)C(F)(F)C(F)(F)C(F)(F)F [Perfluorooctanamidine]
Procedure: as §1

Test System | level (log10) (1-(Perfluorohexyl)octane; 6700 nM) | level (log10) (1-(Perfluorohexyl)octane; 20000 nM) | level (log10) ([1]; 6700 nM) | level (log10) ([1]; 20000 nM) | level (log10) ([1]; 60000 nM) | level (log10) ([2]; 1500 nM) | level (log10) ([2]; 4400 nM) | level (log10) ([2]; 13000 nM) | level (log10) ([2]; 40000 nM) | level (log10) ([3]; 6700 nM) | level (log10) ([3]; 20000 nM) | level (log10) ([3]; 60000 nM) | level (log10) ([4]; 6700 nM) | level (log10) ([4]; 20000 nM) | level (log10) ([4]; 60000 nM) | level (log10) (Perfluorooctanamidine; 6700 nM) | level (log10) (Perfluorooctanamidine; 20000 nM) | level (log10) (Perfluorooctanamidine; 60000 nM)
BT:sIL-17A | 0.06 ± 0.018 | 0.0085 ± 0.12 | 0.021 ± 0.11 | -0.049 ± 0.13 | -0.0765 ± 0.26 | -0.134 ± 0.0028 | -0.113 ± 0.014 | 0.155 ± 0.15 | -0.104 ± 0.11 | 0.023 ± 0.25 | 0.158 ± 0.1 | -0.133 ± 0.022 | -0.182 ± 0.044 | -0.091 ± 0.14 | -0.174 ± 0.16 | 0.1795 ± 0.00071 | -0.145 ± 0.044 | -0.141
BF4T:Keratin 8/18 | 0.006 ± 0.016 | 0.0055 ± 0.0078 | 0.004 ± 0.024 | -0.006 ± 0.0042 | 0.0135 ± 0.015 | 0.0145 ± 0.043 | -0.0005 ± 0.013 | -0.0105 ± 0.015 | 0.0135 ± 0.023 | -0.0035 ± 0.022 | 0.01 ± 0.014 | 0.0385 ± 0.053 | -0.0025 ± 0.0021 | -0.0055 ± 0.012 | 0.004 ± 0.014 | -0.012 ± 0.0057 | -0.0165 ± 0.016 | 0.039
4H:CCL26/Eotaxin-3 | -0.0025 ± 0.0021 | 0.004 ± 0.021 | -0.005 ± 0.0071 | -0.004 | -0.0225 ± 0.043 | -0.0145 ± 0.018 | -0.0395 ± 0.033 | -0.056 ± 0.0071 | -0.0655 ± 0.033 | 0.0085 ± 0.015 | -0.0495 ± 0.021 | -0.0665 ± 0.037 | -0.0075 ± 0.0078 | -0.023 ± 0.0042 | -0.0155 ± 0.022 | -0.006 ± 0.0042 | -0.033 ± 0.0042 | -0.118
LPS:CD142/Tissue Factor | -0.006 ± 0.088 | 0.003 ± 0.083 | -0.014 ± 0.0014 | -0.014 ± 0.011 | -0.0015 ± 0.019 | 0.0325 ± 0.08 | -0.026 ± 0.058 | 0.0025 ± 0.069 | 0.0325 ± 0.019 | -0.0095 ± 0.019 | -0.004 ± 0.0028 | -0.002 | -0.008 ± 0.0014 | -0.0175 ± 0.015 | 0.0065 ± 0.025 | -0.008 ± 0.037 | 0.0055 ± 0.033 | -0.071
